The source of these data is patent publication US20210122763A1, “OGA INHIBITOR COMPOUNDS” (Janssen Pharmaceutica NV, priority 2018, published 2021).

In this experiment the target is T1, OGA (Mus musculus, UniProt Q9EQQ9).
T1 construct: Brains were immediately removed from the skull; from tissue; host or cells: mouse brain (forebrain area of sagittal sections)
T1 sequence (Q9EQQ9 1-916): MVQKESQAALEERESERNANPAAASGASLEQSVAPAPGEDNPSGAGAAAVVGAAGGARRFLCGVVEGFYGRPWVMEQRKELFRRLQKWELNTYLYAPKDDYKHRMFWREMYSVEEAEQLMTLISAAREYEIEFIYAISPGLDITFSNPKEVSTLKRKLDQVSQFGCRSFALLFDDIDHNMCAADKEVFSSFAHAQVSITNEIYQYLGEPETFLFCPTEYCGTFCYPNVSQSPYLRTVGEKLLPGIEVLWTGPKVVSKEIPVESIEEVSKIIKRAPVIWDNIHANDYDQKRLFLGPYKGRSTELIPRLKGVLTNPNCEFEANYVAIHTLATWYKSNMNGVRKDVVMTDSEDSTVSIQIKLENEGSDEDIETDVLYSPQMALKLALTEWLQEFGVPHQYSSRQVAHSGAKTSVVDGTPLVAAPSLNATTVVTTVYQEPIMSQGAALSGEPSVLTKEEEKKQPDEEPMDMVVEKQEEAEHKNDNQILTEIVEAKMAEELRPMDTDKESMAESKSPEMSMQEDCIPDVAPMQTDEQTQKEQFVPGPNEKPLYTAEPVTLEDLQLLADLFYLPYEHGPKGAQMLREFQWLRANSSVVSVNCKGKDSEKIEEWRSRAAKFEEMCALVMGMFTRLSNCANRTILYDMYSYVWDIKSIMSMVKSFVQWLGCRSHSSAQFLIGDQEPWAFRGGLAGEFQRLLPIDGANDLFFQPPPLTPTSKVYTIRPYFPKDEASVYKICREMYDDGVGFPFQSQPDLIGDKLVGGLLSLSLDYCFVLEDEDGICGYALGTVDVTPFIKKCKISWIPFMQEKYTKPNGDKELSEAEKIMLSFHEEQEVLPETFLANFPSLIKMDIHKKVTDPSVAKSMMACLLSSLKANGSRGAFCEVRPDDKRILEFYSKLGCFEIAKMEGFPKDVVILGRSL
Briefly: Ex vivo OGA occupancy assay using [3H]-ligand. The format is in vivo. As to conditions: male NMRI or C57Bl6j mice, p.o., 24 h after administration, forebrain area of brain sections, 3 nM [3H]-ligand, normalised to vehicle; for receptor occupancy at 25 mg/kg: mouse, po, read-out: Occupancy (% +/− sd). The procedure:
3) Ex Vivo OGA Occupancy Assay Using [3H]-Ligand Drug Treatment and Tissue Preparation
Male NMRI or C57Bl6j mice were treated by oral (p.o.) administration of vehicle or compound. Animals were sacrificed 24 hours after administration. Brains were immediately removed from the skull, hemispheres were separated and the right hemisphere, for ex vivo OGA occupancy assay, was rapidly frozen in dry-ice cooled 2-methylbutane (−40° C.). […] sagittal sections were cut using a Leica CM 3050 cryostat-microtome (Leica, Belgium), thaw-mounted on microscope slides (SuperFrost Plus Slides, Thermo Fisher Scientific) and stored at −20° C. until use. After thawing, sections were dried under a cold stream of air. The sections were not washed prior to incubation. The 10 minutes incubation with 3 nM [^3H]-ligand was rigorously controlled. All brain sections (from compound-treated and vehicle-treated animals) were incubated in parallel. After incubation, the excess of [^3H]-ligand was washed off in ice-cold buffer (PBS 1× and 1% BSA) 2 times 10 minutes, followed by a quick dip in distilled water. The sections were then dried under a stream of cold air.
QUANTITATIVE AUTORADIOGRAPHY AND DATA ANALYSIS Radioactivity in the forebrain area of brain slices was measured using a P-imager with M3 vision analysis software (Biospace Lab, Paris). Specific binding was calculated as the difference between total binding and non-specific binding measured in Thiamet-G (10 μM) treated sections. Specific binding in sections from drug treated animals was normalised to binding in sections from vehicle treated mice to calculate percentage of OGA occupancy by the drug.

Turning to `Cc1cc(OC2CCN([C@@H](C)c3nc4nc(C)sc4cc3F)CC2)cc(C)n1` (single isomer, unassigned) [Compound 83], the receptor occupancy at 25 mg/kg came out at 97%.

As to `Cc1cc(OC2CCN([C@H](C)c3nc4c(cc3F)CCO4)CC2)cc(C)n1` (single isomer, unassigned) [Compound 144], the receptor occupancy at 25 mg/kg was found to be 94.7%.

Turning to `Cc1cc(OC2CCN([C@H](C)c3nc4c(cc3F)OCCO4)CC2)cc(C)n1` (single isomer, unassigned) [Compound 148], the receptor occupancy at 25 mg/kg is 84.3%. In addition, the “Occupancy (% +/− sd)” value (25 mg/kg) is recorded as 77.67 +/− 10.5%.

Turning to `Cc1ncc(OC2CCN(C(C)c3nc4c(cc3F)CCO4)CC2)cn1` (centres unmarked) [Compound 95], the receptor occupancy at 25 mg/kg was 20%.
